We go through 19 molecules from patent US12071425B2 (Genentech, Inc., priority 2018, dated 2024).

Molecules are shown by their SMILES. pIC50: −log10 of the molar value. Where a name gives a salt, the structure may show the parent alone.

In the assay the target is kinase domain of IRE1 alpha (His-tagged kinase dead construct KR, AA G547-L977, D688N) (Homo sapiens (Human), UniProt O75460, D688N). Briefly: IRE1α TR-FRET competition binding assay. The settings on record: competition with Kinase Tracer 236, 0.1 μM; one hour at room temperature. An outline of the steps: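 Sf9-expressed kinase-dead KR construct (0.006 μM final) pre-incubated 1 h at 4° C with Eu anti-His antibody (0.002 μM) in HEPES pH 7.5/MgCl2/Brij/DTT buffer; Kinase Tracer 236 (ATP-competitive probe, 0.1 μM final) added with compound. 1 h at room temperature; tracer displacement read by TR-FRET (665/615 nm).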
Sequence of kinase domain of IRE1 alpha (His-tagged kinase dead construct KR, AA G547-L977, D688N) (O75460 547-977 D688N): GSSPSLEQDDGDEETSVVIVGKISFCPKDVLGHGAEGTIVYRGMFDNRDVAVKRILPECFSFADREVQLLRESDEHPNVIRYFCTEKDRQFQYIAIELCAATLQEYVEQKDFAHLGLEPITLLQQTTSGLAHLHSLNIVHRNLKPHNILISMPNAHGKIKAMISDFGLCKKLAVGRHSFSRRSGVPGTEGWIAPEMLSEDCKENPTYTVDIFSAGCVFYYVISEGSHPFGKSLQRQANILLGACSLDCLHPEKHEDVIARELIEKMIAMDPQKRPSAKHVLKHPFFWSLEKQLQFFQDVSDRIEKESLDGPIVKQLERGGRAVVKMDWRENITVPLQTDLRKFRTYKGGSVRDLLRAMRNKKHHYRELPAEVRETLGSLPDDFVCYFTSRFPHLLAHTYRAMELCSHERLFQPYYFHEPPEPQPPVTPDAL
(In TR-FRET formats the signal depends on donor and acceptor labels being close together.)
Take `Cc1c(Oc2ncccc2-c2ccnc(N[C@@H]3CNC[C@@H](F)C3)n2)cc(F)c(NS(=O)(=O)Cc2c(F)cccc2F)c1F` [Compound 293, N-(2,6-Difluoro-4-((3-(2-(((3S,5S)-5-fluoropiperidin-3-yl)amino)pyrimidin-4-yl)pyridin-2-yl)oxy)-3-methylphenyl)-1-(2,6-difluorophenyl)methanesulfonamide]: the pIC50 was 9.39.
Under `CCC(F)(F)CS(=O)(=O)Nc1ccc(Oc2ncccc2-c2ccnc(N[C@H]3CCCNC3)n2)c(F)c1F` [Compound 148, (S)-N-(2,3-Difluoro-4-((3-(2-(piperidin-3-ylamino)pyrimidin-4-yl)pyridin-2-yl)oxy)phenyl)-2,2-difluorobutane-1-sulfonamide hydrochloride] stands 8.19; under `O=S(=O)(Cc1ccccc1F)Nc1c(F)cc(Oc2ncccc2-c2ccnc(NC3CNCC(C4CC4)C3)n2)c(F)c1F` (single isomer, unassigned) [Compound 326, N-(4-((3-(2-((5-Cyclopropylpiperidin-3-yl)amino)pyrimidin-4-yl)pyridin-2-yl)oxy)-2,3,6-trifluorophenyl)-1-(2-fluorophenyl)methanesulfonamide], 9.21; under `O=S(=O)(CC1CCCC1)Nc1ccc(Oc2ncccc2-c2ccnc(N[C@H]3CCCNC3)n2)c(F)c1F` [Compound 228, (S)-1-cyclopentyl-N-(2,3-difluoro-4-((3-(2-(piperidin-3-ylamino)pyrimidin-4-yl)pyridin-2-yl)oxy)phenyl)methanesulfonamide], 8.04.
The value for `COCC1CNCC(Nc2nccc(-c3cccnc3Oc3cc(F)c(NS(=O)(=O)Cc4ccccc4)c(F)c3F)n2)C1` (single isomer, unassigned) [Compound 330, 1-Phenyl-N-(2,3,6-trifluoro-4-((3-(2-((5-(methoxymethyl)piperidin-3-yl)amino)pyrimidin-4-yl)pyridin-2-yl)oxy)phenyl)methanesulfonamide] was 7.06; that for `O=S(=O)(Cc1ccccc1)Nc1c(F)cc(Oc2ncccc2-c2ccnc(N[C@@H]3CNC[C@@H](F)C3)n2)c(F)c1F` [Compound 176, 1-Phenyl-N-(2,3,6-trifluoro-4-((3-(2-(((3S,5S)-5-fluoropiperidin-3-yl)amino)pyrimidin-4-yl)pyridin-2-yl)oxy)phenyl)methanesulfonamide] was 8.60; that for `O=S(=O)(Nc1ccc(Oc2ncccc2-c2ccnc(N[C@H]3CCCNC3)n2)c(F)c1F)c1ccc(OC(F)(F)F)cc1` [Compound 223, (S)-N-(2,3-difluoro-4-((3-(2-(piperidin-3-ylamino)pyrimidin-4-yl)pyridin-2-yl)oxy)phenyl)-4-(trifluoromethoxy)benzenesulfonamide] was 7.59.
Under `CN(C)[C@H]1CC[C@H](Nc2nccc(-c3cccnc3Oc3cc(F)c(NS(=O)(=O)CCC(C)(F)F)c(F)c3F)n2)CC1` [Compound 310, N-(4-((3-(2-(((1r,4r)-4-(Dimethylamino)cyclohexyl)amino)pyrimidin-4-yl)pyridin-2-yl)oxy)-2,3,6-trifluorophenyl)-3,3-difluorobutane-1-sulfonamide] stands 9.49; under `COCC1CNCC(Nc2nccc(-c3cccnc3Oc3cc(F)c(NS(=O)(=O)Cc4ccccc4)c(F)c3F)n2)C1` (single isomer, unassigned) [Compound 328, 1-Phenyl-N-(2,3,6-trifluoro-4-((3-(2-((5-(methoxymethyl)piperidin-3-yl)amino)pyrimidin-4-yl)pyridin-2-yl)oxy)phenyl)methanesulfonamide], 7.96.
As to `Cc1c(NS(=O)(=O)c2ccccc2Cl)cccc1Oc1ncccc1-c1ccnc(N[C@H]2CCCNC2)n1` [Compound 139, (S)-2-Chloro-N-(2-methyl-3-((3-(2-(piperidin-3-ylamino)pyrimidin-4-yl)pyridin-2-yl)oxy)phenyl)benzenesulfonamide hydrochloride], the pIC50 was 7.34.
Under `N[C@H]1CC[C@H](Nc2nccc(-c3cccnc3Oc3c(F)cc(NS(=O)(=O)c4ccccc4Cl)cc3Cl)n2)CC1` [Compound 104, N-[4-[[3-[2-[(4-aminocyclohexyl)amino]pyrimidin-4-yl]-2-pyridyl]oxy]-3-chloro-5-fluoro-phenyl]-2-chloro-benzenesulfonamide hydrochloride] stands 8.23; under `CC(C)(CC#N)CS(=O)(=O)Nc1ccc(Oc2ncccc2-c2ccnc(N[C@H]3CCCNC3)n2)c(F)c1F` [Compound 216, (S)-3-cyano-N-(2,3-difluoro-4-((3-(2-(piperidin-3-ylamino)pyrimidin-4-yl)pyridin-2-yl)oxy)phenyl)-2,2-dimethylpropane-1-sulfonamide], 7.89; under `CN1CCN(Cc2ccc(NC(=O)Nc3ccc(Oc4ncccc4-c4ccnc(N[C@@H]5CNC[C@@H](F)C5)n4)cc3)cc2C(F)(F)F)CC1` [Compound 285, 1-(4-((3-(2-(((3S,5S)-5-Fluoropiperidin-3-yl)amino)pyrimidin-4-yl)pyridin-2-yl)oxy)phenyl)-3-(4-((4-methylpiperazin-1-yl)methyl)-3-(trifluoromethyl)phenyl)urea hydrochloride], 8.05.
Molecule `O=S(=O)(CC1CCCCC1)Nc1ccc(Oc2ncccc2-c2ccnc(N[C@H]3CCCNC3)n2)c(F)c1F` [Compound 145, (S)-1-Cyclohexyl-N-(2,3-difluoro-4-((3-(2-(piperidin-3-ylamino)pyrimidin-4-yl)pyridin-2-yl)oxy)phenyl)methanesulfonamide hydrochloride] had a pIC50 of 8.11.
Under `O=S(=O)(CC1CCC1(F)F)Nc1c(F)cc(Oc2ncccc2-c2ccnc(N[C@@H]3CNC[C@@H](F)C3)n2)c(F)c1F` (single isomer, unassigned) [Compound 265] stands 8.85.
Under `COCCN(C)[C@H]1CC[C@H](Nc2nccc(-c3cccnc3Oc3cc(F)c(NS(=O)(=O)Cc4ccc(F)cc4)c(F)c3F)n2)CC1` [Compound 341, 1-(4-Fluorophenyl)-N-(2,3,6-trifluoro-4-((3-(2-(((1r,4r)-4-((2-methoxyethyl)(methyl)amino)cyclohexyl)amino)pyrimidin-4-yl)pyridin-2-yl)oxy)phenyl)methanesulfonamide hydrochloride] stands 9.30; under `O=S(=O)(Cc1ccccc1F)Nc1c(F)cc(Oc2ncccc2-c2ccnc(N[C@@H]3CNC[C@@H](F)C3)n2)c(Cl)c1F` [Compound 332, N-(3-Chloro-2,6-difluoro-4-((3-(2-(((3S,5S)-5-fluoropiperidin-3-yl)amino)pyrimidin-4-yl)pyridin-2-yl)oxy)phenyl)-1-(2-fluorophenyl)methanesulfonamide], 7.25.
As for `O=S(=O)(Cc1ccccc1)Nc1cc(F)c(Oc2ncccc2-c2ccnc(N[C@H]3CCCNC3)n2)c(F)c1F` [Compound 156, (S)-1-phenyl-N-(2,3,5-trifluoro-4-((3-(2-(piperidin-3-ylamino)pyrimidin-4-yl)pyridin-2-yl)oxy)phenyl)methanesulfonamide hydrochloride], the pIC50 was 8.34. This pIC50 lies 1.09 log units higher than the previous one.
Under `O=S(=O)(Cc1ccccc1F)Nc1ccc(Oc2ncccc2-c2ccnc(N[C@H]3CCCNC3)n2)c(F)c1F` [Compound 146, (S)-N-(2,3-difluoro-4-((3-(2-(piperidin-3-ylamino)pyrimidin-4-yl)pyridin-2-yl)oxy)phenyl)-1-(2-fluorophenyl)methanesulfonamide hydrochloride] stands 8.40.

Usually pIC50 stands for the IC50 on a negative log10 scale, so that one unit is a factor of ten. Higher therefore signals a low IC50.
